Data: US9045525B2, “Amyloid β-protein-specific production-inhibiting polypeptide” (THE DOSHISHA, priority 2012, dated 2015)
“Also recorded” adds a separate entry of the source.

Key:
[1] = reported in NPL 1; cited from earlier work
[2] = tested on: CHO-K1 cells (7WD10 cells) that stably expressed APP protein; experiment: Aβ protein production inhibition experiment in 7WD10 cells (sAPPβ, βCTF, Aβ); type: cell-based; settings: for Aβ protein in the cell culture medium (released Aβ) / Aβ protein in the cell lysate (intracellular Aβ) / sAPP in the cell lysate / βCTF (C99) in the cell lysate: polypeptide 1, 5, 10, 20, and 50 μM
Protocol: (§1) An experiment was conducted wherein #1, #2, and #4 polypeptides were reacted with CHO-K1 cells (7WD10 cells) that stably expressed APP protein and transiently expressed Notch to confirm the production of Aβ protein and cleavage of Notch protein.

[3] = tested on: sialyltransferase (st6gal), substrate of β-secretase, in 7WD10 cells; experiment: Cleavage of sialyltransferase (st6gal) in 7WD10 cells; type: cell-based; settings: polypeptide 25 μM and 50 μM
Protocol: An experiment was conducted in the same manner as Experimental Example 6 except that only S4 polypeptide was used as the polypeptide; the S4 polypeptide was added to have the final concentrations of 25 μM and 50 μM; the cell used in this experiment was CHO-K1 cell (7WD10 cell) that expressed APP protein and transiently expressed Notch and sialyltransferase (st6gal), which is the substrate of β-secretase; and confirmation of cleavage by sialyltransferase was conducted in addition to the confirmation of the production of Aβ protein and cleavage of Notch protein.

[4] = target: γ-secretase against βCTF (C99-FLAG) (Homo sapiens, UniProt P05067); experiment: γ-Secretase activity inhibition experiment in vitro, C99-FLAG substrate; type: biochemical; settings: for cleavage activity of γ-secretase against βCTF (Aβ40 from C99-FLAG): polypeptide 50 μM, 4 hours, 37° C., Western blotting
Chain of γ-secretase against βCTF (C99-FLAG) (P05067 with tags, fused parts or gaps): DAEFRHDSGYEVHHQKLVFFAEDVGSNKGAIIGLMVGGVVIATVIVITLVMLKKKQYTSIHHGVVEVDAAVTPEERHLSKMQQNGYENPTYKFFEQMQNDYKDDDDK
Protocol: (§2) A polypeptide having βCTF (C99-FLAG: SEQ ID NO: 16) and mouse-derived Notch protein having a FLAG peptide at the C-terminal side (modification of NCBI Accession No. Q01705.2; SEQ ID NO: 17; hereunder referred to as “Notch”) shown in FIG. 2(A) were each made into a solution having a final concentration of 50 nM.
(§3) To these solutions, 9-7 polypeptide, 6-5 polypeptide, #1 polypeptide, #2 polypeptide, #3 polypeptide, and #4 polypeptide were added in such a manner that the final concentrations were 50 μM, followed by reacting with 50 μL of CHAPSO-solubilized membrane fraction (γ-secretase-containing fraction) for 4 hours. The reaction temperature was 37° C. As a negative control experiment, DMSO was used in place of the six types of polypeptides described above.
(§4) Each sample after completion of the reaction was measured in the following manner. As shown in FIG. 2(A), a sample using C99-FLAG was subjected to Western blotting using a monoclonal antibody (82E-1) that specifically recognizes the N terminal of C99-FLAG, and the amount of Aβ40 protein produced by the cleavarage by γ-secretase was measured. In contrast, the reaction sample using Notch-FLAG was subjected to Western blotting using an anti-FLAG monoclonal antibody, and the amount of NICD produced to the separete by γ-secretase was also measured. FIG. 2(B) and FIG. 2(C) show the results.
(§5) An experiment was conducted in the same manner as in Experimental Example 1 described above, except that only #1 polypeptide was used and the amount of #1 polypeptide was selected so that the final concentrations were 0.5, 1, 5, 10, 20, and 50 μM.
(§6) An experiment was conducted in the same manner as in Experimental Example 1 described above, except that S4 polypeptide was used as the polypeptide, and each addition amount was set in such a manner that the final concentrations were 1, 5, 10, 20, and 50 μM. In this Experimental Example, #4 polypeptide was added in such a manner that the final result was 50 μM.

[5] = tested on: Notch transiently expressed in CHO-K1 cells (7WD10 cells); experiment: Cleavage of Notch protein (NICD) in 7WD10 cells; type: cell-based; settings: for abundance of the NICD in the cell lysate: polypeptide 1, 5, 10, 20, and 50 μM
Protocol: as §1

[6] = target: β-secretase against APP (APP-EQ-FLAG) (Homo sapiens, UniProt P05067); experiment: β-Secretase activity inhibition experiment in vitro, APP-EQ-FLAG substrate; type: biochemical; settings: for cleavage activity of β-secretase against APP (Aβ33-FLAG): polypeptide 50 μM, 4 hours, 37° C., Western blotting
Chain of β-secretase against APP (APP-EQ-FLAG) (P05067 with tags, fused parts or gaps): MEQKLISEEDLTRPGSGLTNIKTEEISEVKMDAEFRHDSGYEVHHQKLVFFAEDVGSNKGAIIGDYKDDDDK
Protocol: A solution containing the polypeptide having APP (APP-EQ-FLAG: SEQ ID NO: 18) as shown in FIG. 5(A) was prepared in such a manner that its final concentration was 50 nM.
To this solution, 9-7 polypeptide, 6-5 polypeptide, #1 polypeptide, #2 polypeptide, #3 polypeptide, #4 polypeptide, #5 polypeptide, #6 polypeptide, #7 polypeptide, #8 polypeptide, #9 polypeptide, and #10 polypeptide were added in such a manner that each solution had the final concentration of 50 μM, followed by reacting with 50 μL β-secretase (0.02 U/μL) for 4 hours. The reaction temperature was 37° C. As a negative control experiment, DMSO was used in place of the 12 types of polypeptides mentioned above.
After completion of the reaction, each sample was subjected to Western blotting using a monoclonal antibody (82E-1) that specifically recognizes the N terminal of APP-EQ-FLAG as shown in FIG. 5(A). Thereafter, the amount of Aβ33-FLAG protein separated by β-secretase was measured.
An experiment was conducted in the same manner as Experimental Example 4 described above except that S4 and #4 polypeptides were used as the polypeptide and the amounts of these polypeptides added were adjusted so that the final concentrations were 1, 5, 10, 20, 50, and 100 μM.

[7] = target: γ-secretase against Notch (Mus musculus, UniProt Q01705, V1997L); experiment: γ-Secretase activity inhibition experiment in vitro, Notch-FLAG substrate; type: biochemical
Chain of γ-secretase against Notch (Q01705 with tags, fused parts or gaps V1997L): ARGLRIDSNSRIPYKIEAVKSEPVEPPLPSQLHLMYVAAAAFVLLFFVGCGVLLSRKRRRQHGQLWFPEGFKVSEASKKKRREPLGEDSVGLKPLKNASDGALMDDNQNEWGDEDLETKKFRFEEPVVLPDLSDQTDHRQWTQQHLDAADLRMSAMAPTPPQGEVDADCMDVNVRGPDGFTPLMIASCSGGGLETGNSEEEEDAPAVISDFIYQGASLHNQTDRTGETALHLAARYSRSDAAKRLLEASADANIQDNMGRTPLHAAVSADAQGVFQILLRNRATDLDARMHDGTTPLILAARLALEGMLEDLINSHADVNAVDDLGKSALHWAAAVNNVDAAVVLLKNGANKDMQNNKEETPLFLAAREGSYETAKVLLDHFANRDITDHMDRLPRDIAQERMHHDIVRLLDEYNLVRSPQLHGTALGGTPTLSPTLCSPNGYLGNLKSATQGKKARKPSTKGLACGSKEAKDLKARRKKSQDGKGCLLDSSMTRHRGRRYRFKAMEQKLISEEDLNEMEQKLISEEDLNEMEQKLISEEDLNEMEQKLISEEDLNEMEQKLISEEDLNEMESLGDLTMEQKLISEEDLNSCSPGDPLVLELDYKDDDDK
Protocol: as §2, §3, §4, §5, §6

[8] = tested on: Neuro 2A cells (N2A); experiment: Mouse Aβ production inhibition experiment, Neuro 2A cells; type: cell-based; settings: polypeptide 20 μM, Neuro2A cells expressing mouse-type APP, anti-mouse Aβ antibody Western blotting
Protocol: (§7) #1, #2, and #4 polypeptides were added to the culture solutions of CHO-K1 cells and Neuro 2A cells (N2A) in such a manner that the final concentration was 20 μM. As a control, L685458 (i.e., a γ-secretase inhibitor) and DMSO were added thereto in such a manner that the final concentration was 20 μM.
(§8) Thereafter, Aβ contained in the cell culture medium was identified by using a Western-blotting method with an antibody (anti-mouse Aβ antibody) that recognizes Aβ. […] In the figure, L indicates L685458, which is a γ-secretase inhibitor (final concentration of 1 μM).

[9] = tested on: CHO-K1 cells; experiment: Mouse Aβ production inhibition experiment, CHO-K1 cells; type: cell-based; settings: polypeptide 20 μM, CHO-K1 cells expressing mouse-type APP, anti-mouse Aβ antibody Western blotting
Protocol: as §7, §8

[10] = polypeptide 25 μM and 50 μM, cells also expressing st6gal
[11] = polypeptide 1, 5, 10, 20, and 50 μM
[12] = polypeptide 0.5, 1, 5, 10, 20, and 50 μM

| Compound | production of Aβ in the culture medium [8] | Aβ protein in the cell culture medium (released Aβ) [2] | Aβ protein in the cell lysate (intracellular Aβ) [2] | sAPP in the cell lysate [2] | βCTF (C99) in the cell lysate [2] | cleavage activity of γ-secretase against βCTF (Aβ40 from C99-FLAG) [4] | production of Aβ in the culture medium [9] | abundance of the NICD in the cell lysate [5] | cleavage activity of β-secretase against APP (Aβ33-FLAG) [6] | other results |
| --- | --- | --- | --- | --- | --- | --- | --- | --- | --- | --- |
| C[C@H](NC(=O)[C@@H](O)c1cc(F)cc(F)c1)C(=O)N[C@@H]1C(=O)N(C)c2ccccc2-c2ccccc21 [LY-411,575] | – | – | – | – | – | – | – | – | – | effect on the thymus [1]: induces atrophy of the thymus; number of mature B cells in the spleen [1]: reduces the number of mature B cells in the spleen |
| FGBTWDYWVYR [S4] | – | – | – | – | – | – | – | – | – | Aβ protein (intracellular Aβ) in the cell lysate [2, 10]: decreased; amount of Aβ protein (released Aβ) in the cell culture medium [2, 10]: reduced; sAPPβ production amount in the cell culture medium [2, 10]: reduced; st6gal production amount in the cell culture medium [3]: not decreased; cleavage activity of γ-secretase against βCTF [4, 11]: inhibits more intensely in a concentration-dependent manner the cleavage activity of γ-secretase against βCTF; amount of NICD in the cell lysate [5, 10]: did not decrease; cleavage activity of β-secretase against APP ([6]; polypeptide 1, 5, 10, 20, 50, and 100 μM): inhibited the cleavage activity of β-secretase against APP, although inferior to #4 polypeptide; also recorded: inhibited the cleavage activity of β-secretase against APP in a concentration-dependent manner; cleavage activity of γ-secretase against Notch (NICD) [7, 11]: not inhibited |
| MDTVICDCYCDNYVCFCYSCSHV (Ac-MDTVICDCYCDNYVCFCYSCSHV-NH2; cysteine pairing not given here) [#2] | the production of Aβ in the culture medium was reduced | decreased depending on the concentration | no longer present in a manner dependent on the final concentration | no longer present in a manner dependent on the final concentration | no longer present in a manner dependent on the final concentration | inhibited more cleavage activity of γ-secretase against βCTF | the production of Aβ in the culture medium was reduced | not decreased | inhibit the cleavage activity of β-secretase against APP more intensely | – |
| MSIRVCDCYCHGDLCFCYSCINS (Ac-MSIRVCDCYCHGDLCFCYSCINS-NH2; cysteine pairing not given here) [#1] | the production of Aβ in the culture medium was reduced | decreased depending on the concentration | no longer present in a manner dependent on the final concentration | no longer present in a manner dependent on the final concentration | no longer present in a manner dependent on the final concentration | inhibited more cleavage activity of γ-secretase against βCTF; also recorded: inhibited the cleavage activity of γ-secretase against Aβ protein | the production of Aβ in the culture medium was reduced | not decreased | inhibit the cleavage activity of β-secretase against APP more intensely | cleavage activity of γ-secretase against βCTF [4, 12]: more intensively inhibits the cleavage activity of γ-secretase against βCTF in a concentration-dependent manner; also recorded: inhibited the cleavage activity of γ-secretase against βCTF in a concentration-dependent manner; cleavage activity of γ-secretase against Notch (NICD) ([7]; polypeptide 50 μM, 4 hours, 37° C., Western blotting): did not inhibit the cleavage activity against Notch; cleavage activity of γ-secretase against Notch (NICD) [7, 12]: did not inhibit the cleavage activity of γ-secretase against Notch |
